Earlier results as cited in patent US20230000073A1, “A COMPOSITION FOR ACTIVATING PLANT'S NATURAL DEFENSE MECHANISMS TO EXTEND THE SHELF LIFE AND METHODS THEREOF” (GREENPOD LABS PRIVATE LIMITED, priority 2019, published 2023).
Entries after “also recorded” stand apart in the source; their conditions may differ. Like-named read-outs stand apart in the source and are kept apart here.

Tests used:
[1] = test system: Strawberry
[2] = test system: Kiwifruit
[3] = test system: Banana
[4] = test system: Sweet cherry
[5] = test system: Tomato
[6] = test system: Orange
[7] = test system: Apple
[8] = test system: Watermelon
[9] = test system: Fresh-cut Chestnut

O=C(O)c1ccccc1O [SA, 2-hydroxybenzoic acid]
Reported results (effects of SA) [1]: Decay, Ripenings, weight loss reduction | Reported results (effects of SA) [2]: Inhibition of ethylene production, ripening &; also recorded: decay control | Reported results (effects of SA) [3]: Decrease in fruit softening pulp/peel ratio, reducing sugar content, | Reported results (effects of SA) [4]: direct antifungal activity | Reported results (effects of SA) [5]: Development of red color, regulation of ACS genes expression | Reported results (effects of SA) [6]: SOD, GR, APX & DHAR activity & ASA/DHASA | Reported results (effects of SA) [7]: Decreased ethylene, LOX activity, MDA content, DI, | Reported results (effects of SA) ([7]; combined with microbial antagonist): Enchaned the biological efficacy of antagonist | Reported results (effects of SA) [8]: Increase in GPX, APX, CAT, SOD & GR activity, | Reported results (effects of SA) [9]: Delayed discoloration, maintained edible quality
